According to patent US20080242667A1, “Pyrimidinyl-Pyrazole Inhibitors of Aurora Kinases” (SMITHKLINE BEECHAM CORPORATION, priority 2005, published 2008):

melting point	SMILES
167 to 168 °C	O=C(Nc1ccc(-c2nn(CCN3CCOCC3)cc2-c2ccnc(Nc3cccc(F)c3)n2)cc1)N1CCCC1 [Example 84, N-(4-{4-[2-{(3-fluorophenyl)amino]-4-pyrimidinyl}-1-[2-(4-morpholinyl)ethyl]-1H-pyrazol-3-yl}phenyl)-1-pyrrolidinecarboxamide]
228 to 230 °C	Cn1ncc(-c2ccnc(Nc3cccc(CCN4CCOCC4)c3)n2)c1-c1ccc(NC(=O)N2CCCC2)cc1 [Example 56, N-(4-{1-methyl-4-[2-({3-[2-(4-morpholinyl)ethyl]phenyl}amino)-4-pyrimidinyl]-1H-pyrazol-5-yl}phenyl)-1-pyrrolidinecarboxamide]
185 to 186 °C	O=C(Nc1ccc(-c2nn(CCO)cc2-c2ccnc(Nc3cccc(F)c3)n2)cc1)N1CCCC1 [Example 54, N-{4-[4-{2-[(3-fluorophenyl)amino]-4-pyrimidinyl}-1-(2-hydroxyethyl)-1H-pyrazol-3-yl]phenyl}-1-pyrrolidinecarboxamide]
132 to 134 °C	CN(C)C(=O)Nc1ccc(-c2nn(C)cc2-c2ccnc(Nc3cccc(CCN4CCOCC4)c3)n2)cc1 [Example 65, N,N-dimethyl-N′-(4-{1-methyl-4-[2-({3-[2-(4-morpholinyl)ethyl]phenyl}amino)-4-pyrimidinyl]-1H-pyrazol-3-yl}phenyl)urea]
139 to 141 °C	CCNC(=O)Nc1ccc(-c2nn(C)cc2-c2ccnc(Nc3cccc(CCN4CCOCC4)c3)n2)cc1 [Example 61, N-ethyl-N′-(4-{1-methyl-4-[2-({3-[2-(4-morpholinyl)ethyl]phenyl}amino)-4-pyrimidinyl]-1H-pyrazol-3-yl}phenyl)urea]
143 to 145 °C	Cn1cc(-c2ccnc(Nc3cccc(CCN4CCOCC4)c3)n2)c(-c2ccc(NC(=O)NC3CC3)cc2)n1 [Example 55, N-cyclopropyl-N′-(4-{1-methyl-4-[2-({3-[2-(4-morpholinyl)ethyl]phenyl}amino)-4-pyrimidinyl]-1H-pyrazol-3-yl}phenyl)urea]
